Measured values reported in patent US8829039B2, “Dihydroindolinone derivatives” (Shanghai Institute of Pharmaceutical Industry, priority 2008, dated 2014).

Tests used:
[1] = test system: colon cancer cell COLO205; assay: Inhibition of tumor cell proliferation in vitro (MTT), COLO205; type: cell-based; details: Homo sapiens, COLO 205, 48 hrs, read-out: Growth inhibition in vitro IC50
Protocol: (§1) The activity assay of the compounds of the invention was carried out through common methods in the art. Commercially available Sunitinib was used as positive control, and lung cancer cell H460, colon cancer cell COLO205 and HT29, breast cancer cell A435 were used as exemplary tumor cells. The tested compounds were prepared by the methods disclosed in the Examples above.
(§2) A certain amount (100 μL/well, 0.5−1×10^4 cells/mL) of lung cancer cell H460, colon cancer cell COLO205, and breast cancer cell A435, etc. in logarithmic growth phase were seeded in a 96-well plate, and incubated in an incubator for 24 hrs at 37° C. and 5% CO2. Afterwards, tested compounds and positive control (20 μL/wells) were added, followed by 80 µL of 10% serum medium, and then the tumor cells were incubated for further 48 hrs at 37° C. and 5% CO2. Afterwards, MTT (5 mg/mL) was added to the 96-well plates (20 μL/well), and the cells were incubated for another 4 h. After removing the supernatant, the cells were dissolved with DMSO (150 μL/well) and measured with a microplate reader at 490 nm.

[2] = test system: poorly differentiated human gastric adenocarcinoma cell BGC-823; assay: Anti-tumor activity assay (MTT), BGC-823; type: cell-based; details: 48 hrs, samples stored at −20° C. for one week, read-out: Inhibition rate; for inhibition at 0.1 µg/mL: final concentration 0.1 μg/mL; for inhibition at 1 µg/mL: final concentration 1 μg/mL; for inhibition at 10 µg/mL: final concentration 10 μg/mL
Protocol: (§3) These tests were carried out using conventional operations in the art. Specifically, the following materials and methods were employed:
(§4) Human cervical cancer cell Hela, human liver cancer cell SMMC-7721, human lung cancer cell A549, poorly differentiated human gastric adenocarcinoma cell BGC-823, human breast cancer cell MDA-MB-231.
(§5) To a bottle containing exponential growth phase cells in good condition, 0.25% trypsin solution was added. […] The cell suspension was seeded in a 96-well plate with an amount of 100 μL/well, incubated in a CO2 incubator for 24 hrs. 20 μL/well of tested compounds were added, followed by […], of 10% serum medium, and incubated for 48 hrs. 20 μL/well of MTT (5 mg/mL) was added to the 96-well plate, and the cells were incubated for 4 hrs in the incubator. After removing the supernatant, 150 μL/well of DMSO was added, and the cells were shaked in a horizontal swing bed for 10 minutes. Optical density value (OD value) of each well was measured with an ELISA analyzer at 490 nm, and cell inhibition rate was calculated. The corresponding solvent was used as negative control, and paclitaxel was used as positive control.

[3] = test system: Lung cancer cell H460; assay: Inhibition of tumor cell proliferation in vitro (MTT), H460; type: cell-based; details: Homo sapiens, NCI-H460, 48 hrs, read-out: Growth inhibition in vitro IC50
Protocol: as §1, §2

[4] = test system: human breast cancer cell MDA-MB-231; assay: Anti-tumor activity assay (MTT), MDA-MB-231; type: cell-based; details: 48 hrs, samples stored at −20° C. for one week, read-out: Inhibition rate; for inhibition at 0.1 µg/mL: final concentration 0.1 μg/mL; for inhibition at 1 µg/mL: final concentration 1 μg/mL; for inhibition at 10 µg/mL: final concentration 10 μg/mL
Protocol: as §3, §4, §5

[5] = test system: human liver cancer cell SMMC-7721; assay: Anti-tumor activity assay (MTT), SMMC-7721; type: cell-based; details: 48 hrs, samples stored at −20° C. for one week, read-out: Inhibition rate; for inhibition at 0.1 µg/mL: final concentration 0.1 μg/mL; for inhibition at 1 µg/mL: final concentration 1 μg/mL; for inhibition at 10 µg/mL: final concentration 10 μg/mL
Protocol: as §3, §4, §5

[6] = test system: Fibroblast NIH/3T3; assay: Inhibition of fibroblast NIH/3T3 proliferation (MTT); type: cell-based; details: Mus musculus, NIH3T3, 48 h, read-out: Inhibition of NIH/3T3 cell proliferation in vitro IC50
Source text: The method commonly used at present for studying fibroblast proliferation associated diseases, i.e., for studying tissue and organ fibrosis, is measuring effects of test compounds on NIH/3T3 cell proliferation (Gao Z. M., Wan K., Effect of inhibition of NIH/3T3 cell proliferation by Cantharidin on prevention and treatment of organ and tissue fibrosis. Chinese Journal of Clinical Rehabilitation, 2004 (2). Tao Y. Y., Wang X. L., Effects of Salvianolic Acid-B on TGF-β1/ERK Signaling Transduction in NIH/3T3 Fibroblast. Journal of Capital Medical University, 2007 (2)).
Fibroblast NIH/3T3 in logarithmic growth phase was seeded in a 96-well plate, by a certain number of cells (100 μL/well, 0.5−1×10^4 cells/mL). After incubating for 24 h, the screened samples (20 μl/well) were added (directly added after cell suspension was seeded in the plate), incubated for further 48 h at 37° C. and 5% CO2. Afterwards, MTT (5 mg/mL) was added to the 96-well plate (20 μL/well). The cells were incubated for another 4 h, and then dissolved with DMSO (150 μL/well) and measured with a microplate reader at 490 nm. The inhibition rate and IC50 were calculated.

[7] = test system: human lung cancer cell A549; assay: Anti-tumor activity assay (MTT), A549; type: cell-based; details: 48 hrs, samples stored at −20° C. for one week, read-out: Inhibition rate; for inhibition at 0.1 µg/mL: final concentration 0.1 μg/mL; for inhibition at 1 µg/mL: final concentration 1 μg/mL; for inhibition at 10 µg/mL: final concentration 10 μg/mL
Protocol: as §3, §4, §5

[8] = test system: human colon cancer HT-29 cells transplanted in nude mice; assay: Growth inhibition of human cancer HT-29 cells transplanted in nude mice; type: in vivo; details: for Body weight d0 / Body weight d21: nude mice with HT-29 tumor; for Body weight d0: d0, time of administration in separate cages; for Body weight d0 / TV d0: 30 mg/kg group; for Body weight d21 / T/C (%) / RTV / TV d21: 30 mg/kg intragastrically once a day for 21 days; for T/C (%): relative tumor proliferation rate TRTV/CRTV; for RTV: relative tumor volume TVt/TV0; for TV d0: tumor volume at d0, time of administration in separate cages; for TV d21: tumor volume at d21
Protocol: A piece of tumor tissue in vigorous growth phase was obtained and cut into the size of about 1.5 mm^3, and subcutaneously inoculated into the right axillary region of nude mice aseptically. Diameters of transplanted tumors in nude mice were measured with a vernier caliper. After tumors grew to 100˜300 mm^3, the animals were randomly divided into 6 groups: model control group, Sunitinib group (30 mg/kg), Compound 1 group (30 mg/kg), Compound 2 group (30 mg/kg), Compound 3 group (30 mg/kg), Compound 4 group (30 mg/kg). […] Meanwhile, the negative control group was administered equivalent amount of sterile saline. The dynamic observation of antitumor effects of compounds 1-4 and Sunitinib was performed by measuring tumor diameters. […] The general behavior of nude mice was observed and recorded daily. (1) Tumor volume (TV), calculated by the equation: […] wherein a, b represent length and width, respectively. […] RTV=TVt/TV0 wherein TV0 represents the tumor volume at the beginning of administration in separated cages (ie. d0), TVt represents the tumor volume of each measurement. […] T/C %=(TRTV/CRTV)×100% TRTV: RTV of positive control group and each test compound group. CRTV: RTV of model control group.

[9] = test system: breast cancer cell A435; assay: Inhibition of tumor cell proliferation in vitro (MTT), A435; type: cell-based; details: 48 hrs, read-out: Growth inhibition in vitro IC50
Protocol: as §1, §2

[10] = test system: Human cervical cancer cell Hela; assay: Anti-tumor activity assay (MTT), Hela; type: cell-based; details: 48 hrs, samples freshly prepared with DMSO, read-out: Inhibition rate; for inhibition at 0.1 µg/mL: final concentration 0.1 μg/mL; for inhibition at 1 µg/mL: final concentration 1 μg/mL; for inhibition at 10 µg/mL: final concentration 10 μg/mL
Protocol: as §3, §4, §5

Row | IC50 [1] [nM] | IC50 [3] [nM] | melting point [°C] | SMILES | inhibition at 0.1 µg/mL [2] [%] | inhibition at 1 µg/mL [2] [%] | inhibition at 10 µg/mL [2] [%] | inhibition at 0.1 µg/mL [4] [%] | inhibition at 1 µg/mL [4] [%] | inhibition at 10 µg/mL [4] [%] | inhibition at 0.1 µg/mL [5] [%] | inhibition at 1 µg/mL [5] [%] | inhibition at 10 µg/mL [5] [%] | IC50 [6] [nM] | inhibition at 0.1 µg/mL [7] [%] | inhibition at 1 µg/mL [7] [%] | inhibition at 10 µg/mL [7] [%] | Body weight d0 [8] [g] | Body weight d21 [8] [g] | T/C (%) [8] [%] | RTV [8] | also measured
1 | 110 | 160 | 241 to 244 | Cc1[nH]c(/C=C2\C(=O)Nc3ccc(F)cc32)c(C)c1C(=O)NCCC1CCCN1C (stereo not shown) [Compound 2, N-[(1-methylpyrrolidin-2-yl)ethyl]-5-(5-fluoro-2-oxo-1,2-dihydroindole-3-methylene)-2,4-dimethyl-1H-pyrrole-3-formamide] | 4.73 | 20.2 | 76.2 | -0.2 | 16.5 | 71.6 | -6.59 | -10.8 | 74.8 | 536 | 0.59 | 29.9 | 100 | 19.7 ± 1.7 | 19.7 ± 1.6 | 17.8 | 1.6 ± 0.9 | TV d0 [8]: 193.5 ± 61.9 mm^3; TV d21 [8]: 342.9 ± 284.7 mm^3; IC50 [9]: 85 nM; inhibition at 0.1 µg/mL [10]: -6.18%; inhibition at 1 µg/mL [10]: 24.7%; inhibition at 10 µg/mL [10]: 97.2%
2 | 110 | 140 | 263 to 266 | Cc1[nH]c(/C=C2\C(=O)Nc3ccc(F)cc32)c(C)c1C(=O)NCC1CCCCN1 (stereo not shown) [Compound 3] | -5.42 | 17 | 78.8 | -5.4 | 0.5 | 88.6 | -18.6 | 4 | 62.1 | 530 | 11.9 | 22.7 | 94.2 | 20.6 ± 2.0 | 20.8 ± 2.3 | 15.0 | 1.3 ± 0.7 | TV d0 [8]: 196.7 ± 62.7 mm^3; TV d21 [8]: 290.4 ± 238.4 mm^3; IC50 [9]: 68 nM; inhibition at 0.1 µg/mL [10]: -3.2%; inhibition at 1 µg/mL [10]: 50.8%; inhibition at 10 µg/mL [10]: 98%
